Results on 1 compound are retold here after patent publication US10835513B2, “Methods and treatments for the learning and memory deficits associated with Noonan syndrome” (The Regents of the University of California, priority 2013, dated 2020).

The structures appear in SMILES notation.

For the experiment, the system named is Pyramidal neurons in CA1. Kind of experiment: Whole-cell voltage clamp recordings (AMPA:NMDA ratio, mEPSC) in AAV-PTPN11^D61G-infected hippocampi. Type of experiment: cell-based, mice. To be noted: SL327 1 μM; for AMPA:NMDA current ratio: 1 hr. The procedure: FIG. 4 are graphs showing PTPN11^D61G overexpression enhances excitatory synaptic function through increased Ras-Erk signaling. Panel a) AMPA receptor-mediated currents were measured at the peak of the currents at −65 mV, and NMDA currents were measured 50 ms after onset at +40 mV. The average of 15 traces is shown. Scale, 100 pA and 40 ms. Panel b) Group data showing the increased AMPA:NMDA current ratio in AAV-PTPN11^D61G mice (1.51±0.11, n=10 cells from 5 mice) compared with AAV-GFP mice (0.96±0.05, n=10 cells from 5 mice, t-test, ***P<0.001). […] Two-way ANOVA, interaction between viral treatment and drug, F(1, 31)=10.53, **P<0.01. […] Panel c) Paired-pulse facilitation ratio is unaffected by PTPN11^D61G. There was no significant difference at 25 ms or 50 ms intervals between two groups (AAV-PTPN11^D61G, n=12 cells from 5 mice; AAV-GFP, n=11 cells from 5 mice). Repeated-measures ANOVA, F(1, 21)=0.010, P=0.921. Panel d) PTPN11^D61G overexpression increases excitatory synaptic function. mEPSC frequency was increased in AAV-PTPN11^D61G-infected mice compared with AAV-GFP mice, and was reversed by SL327 (1 μM) treatment without affecting on the AAV-GFP group. mEPSC frequency: GFP/Veh, 1.50±0.53, n=9; PTPN11^D61G/Veh, 4.64±0.94, n=9; GFP/SL327, 1.28±0.19, n=7; PTPN11^D61G/SL327, 2.02±0.32, n=9; Two-way ANOVA with viral treatment as between-subjects factor, F(1, 30)=10.31, **P<0.01. […] Two-way ANOVA with viral treatment as between-subjects factor, F(1, 30)=0.470, P=0.498. Scale, 20 pA and 200 ms. Panel e) Excitatory synaptic function is increased in Ptpn11^D61G/+ mice and reversed by SL327 treatment. mEPSC frequency was increased in Ptpn11^D61G/+ mice compared with WT littermates, and was reversed by SL327 (1 μM) treatment. mEPSC frequency: WT/Veh, 2.68±0.55, n=9; Ptpn11^D61G/+/Veh, 5.71±0.56, n=10; WT/SL327, 2.46±0.63, n=9; Ptpn11^D61G/+/SL327, 2.87±1.02, n=9; Two-way ANOVA with genotype as between-subjects factor, F(1, 33)=5.914, *P<0.05. […] Two-way ANOVA with genotype as between-subjects factor, F(1, 33)=0.418, P=0.839. Scale, 20 pA and 200 ms.
We examined the electrophysiological mechanism underlying the LTP impairment in AAV-PTPN11^D61G-infected mice. Increases in Ras signaling are known to facilitate AMPA receptor trafficking to the surface membrane^20. For example, expression of constitutively active Ras enhances AMPA receptor-mediated currents in hippocampal neurons and impairs LTP^20. […]
Whole-cell voltage clamp recordings were done with an Axopatch 200B amplifier (Axon Instrument) as previously described^29, 30. […] For mEPSC recordings, voltage clamp recordings were performed at −60 mV in the presence of 100 μM picrotoxin and 1 μM TTX. mIPSCs were measured at +10 mV in the presence of 1 mM kynurenic acid and 1 μM TTX. […]

For `N#C/C(=C(/N)Sc1ccc(N)cc1)c1ccccc1C(F)(F)F` [SL327], the mEPSC frequency was 1.28±0.19 (AAV-GFP mice) and 2.02±0.32 (AAV-PTPN11^D61G-infected mice). Besides, the “AMPA:NMDA current ratio” value by setting is: (GFP group) 1.08±0.07; (PTPN11^D61G group) 1.07±0.11.
